According to patent US6605634B2 (Amgen, Inc., priority 1996, dated 2003):

Each molecule was assayed on production of tumor necrosis factor (TNF) by monocytes activated with bacterial lipopolysaccharide (LPS) (assay: Lipopolysaccharide-activated Monocyte TNF Production Assay). Details: Homo sapiens, TNF in culture supernatants by ELISA, read-out: IC50 (concentration of test compounds causing a 50% reduction in TNF production).
Type: cell-based
Procedure: Lipopolysaccharide-activated Monocyte TNF Production Assay
Test compounds were evaluated in vitro for the ability to inhibit the production of tumor necrosis factor (TNF) by monocytes activated with bacterial lipopolysaccharide (LPS). Fresh residual source leukocytes (a byproduct of plateletpheresis) were obtained from the local blood bank and peripheral blood mononuclear cells (PBMCs) were isolated by density gradient centrifugation on Ficol-Paque Plus (Pharmacia). PBMCs were suspended at 2×10^6/ml in DMEM supplemented to contain 2% FCS (10 mM), 0.3 mg/ml glutamate, 100 U/ml penicillin G and […] streptomycin sulfate (complete media). Cells were plated into Falcon flatbottom 96 well culture plates (200 μl/well) and cultured overnight at 37° C. and 6% CO2. Nonadherent cells were removed by washing with 200 μl/well of fresh medium. Wells containing adherent cells (˜70% monocytes) were replenished with 100 μl of fresh medium.
Preparation of Test Compound Stock Solutions
Test compounds were dissolved in […]. Compound stock solutions were prepared to an initial concentration of […]. Stocks were diluted initially to 20-200 μM in complete media. Nine two-fold serial dilutions of each compound were then prepared in complete medium.
Treatment of Cells with Test Compounds and Activation of TNF Production with Lipopolysaccharide
One hundred microliters of each test compound dilution were added to microtiter wells containing adherent monocytes and 100 μl complete medium. Monocytes were cultured with test compounds for 60 min at which time 25 μl of complete medium containing 30 ng/ml lipopolysaccharide from E. coli K532 were added to each well. Cells were cultured an additional 4 hrs. Culture supernatants were then removed and TNF present in the supernatants was quantified using an ELISA.
Flat bottom 96 well Coming High Binding ELISA plates were coated overnight (4° C.) with 150 μL/well of 3 μg/ml murine anti-human TNFa MAb (R&D Systems #MAB210). Wells were then blocked 1 h at room temperature with 200 μL/well of CaCl2-free ELISA buffer supplemented to contain 20 mg/ml BSA (standard ELISA buffer: […], 150 mM NaCl, 2 mM CaCl2, 0.15 mM thimerosal, pH 7.4). Plates were washed and replenished with 100 μl of test supernatants (diluted 1:3) or standards. Standards consisted of eleven 1.5-fold serial dilutions from a stock of 1 ng/ml recombinant human TNF (R&D Systems). Plates were incubated at room temperature for 1 h on orbital shaker (300 rpm), washed and replenished with 100 μl/well of 0.5 jig/ml goat anti-human TNFa (R&D systems #AB-210-NA) biotinylated at a 4:1 ratio. Plates were incubate for 40 min, washed and replenished with 100 μl/well of alkaline phosphatase-conjugated streptavidin (Jackson ImmunoResearch #016-050-084) at 0.02 μg/ml. Plates were incubated 30 min, washed and replenished with 200 μl well of 1 mg/ml of p-nitrophenyl phosphate. After 30 min, plates were read at 405 nm on a Vmax plate reader.
Standard curve data were fit to a second order polynomial and unknown TNF-a concentrations determined from their OD by solving this equation for concentration. TNF concentrations were then plotted Vs test compound concentration using a second order polynomial. This equation was then used to calculate the concentration of test compounds causing a 50% reduction in TNF production.

Structure (SMILES) | IC50
CC(C)(C)OC(=O)NCC(=O)Nc1ccc2c(-c3ccncc3)c(-c3ccc(F)cc3)[nH]c2n1 [Compound 29, 6-(2′-t-butoxycarbonylamino-1′-oxo-ethylamino)-3-(4-pyridyl)-2-(4-fluorophenyl)-7-aza-indole] | < 20 µM
NCCC(=O)Nc1ccc2c(-c3ccncc3)c(-c3ccc(F)cc3)[nH]c2n1 [Compound 91, 6-(3′-amino-1′-oxo-propylamino)-3-(4-pyridyl)-2-(4-fluorophenyl)-7-aza-indole] | < 20 µM
CS(=O)(=O)Nc1ccc2c(-c3ccncc3)c(-c3ccc(F)cc3)[nH]c2n1 [Compound 93, 6-(methylsulfonylamino)-3-(4-pyridyl)-2-(4-fluorophenyl)-7-aza-indole] | < 20 µM
CCNc1ccc2c(-c3ccncc3)c(-c3ccc(F)cc3)[nH]c2n1 [Compound 156, 6-(ethylamino)-3-(4-pyridyl)-2-(4-fluorophenyl)-7-aza-indole] | < 20 µM
CC(C)(C)OC(=O)N[C@@H](Cc1cncn1C(=O)OC(C)(C)C)C(=O)Nc1ccc2c(-c3ccncc3)c(-c3ccc(F)cc3)[nH]c2n1 [Compound 112] | < 20 µM
NCCC[C@H](N)C(=O)Nc1ccc2c(-c3ccncc3)c(-c3ccc(F)cc3)[nH]c2n1 [Compound 69, 6-(5′-amino-1′-oxo-2′-aminopentylamino)-3-(4-pyridyl)-2-(4-fluorophenyl)-7-aza-indole] | < 20 µM
CN[C@@H](CC(C)C)C(=O)Nc1ccc2c(-c3ccncc3)c(-c3ccc(F)cc3)[nH]c2n1 [Compound 129, 6-(1′-oxo-2′S-N-methyl-4-methyl-2-aminopentylamino)-3-(4-pyridyl)-2-(4-fluorophenyl)-7-aza-indole] | < 20 µM
N[C@@H](CCc1ccccc1)C(=O)Nc1ccc2c(-c3ccncc3)c(-c3ccc(F)cc3)[nH]c2n1 [Compound 139, 6-(4′-phenyl-1′-oxo-2′-(L)-aminobutylamino)-3-(4-pyridyl)-2-(4-fluorophenyl)-7-aza-indole] | < 20 µM
O=S(=O)(Nc1ccc2c(-c3ccncc3)c(-c3ccc(F)cc3)[nH]c2n1)c1ccc(Cl)s1 [Compound 95, 6-(2′-(5-chlorothienyl)sulfonylamino)-3-(4-pyridyl)-2-(4-fluorophenyl)-7-aza-indole] | < 20 µM
N[C@@H](Cc1ccc(I)cc1)C(=O)Nc1ccc2c(-c3ccncc3)c(-c3ccc(F)cc3)[nH]c2n1 [Compound 71, 6-(3′-(4-iodophenyl)-1′-oxo-2′-aminopropylamino)-3-(4-pyridyl)-2-(4-fluorophenyl)-7-aza-indole] | < 1 µM
N[C@@H](CCC(=O)O)C(=O)Nc1ccc2c(-c3ccncc3)c(-c3ccc(F)cc3)[nH]c2n1 [Compound 83, 6-(4′-carboxy-1′-oxo-2′-aminobutylamino)-3-(4-pyridyl)-2-(4-fluorophenyl)-7-aza-indole] | < 20 µM
Fc1ccc(-c2[nH]c3nc(NCc4cccs4)ccc3c2-c2ccncc2)cc1 [Compound 154, 6-(2′-thienylmethylamino)-3-(4-pyridyl)-2-(4-fluorophenyl)-7-aza-indole] | < 20 µM
CCC(CC)CNc1ccc2c(-c3ccncc3)c(-c3ccc(F)cc3)[nH]c2n1 [Compound 153, 6-(2′-ethylbutylamino)-3-(4-pyridyl)-2-(4-fluorophenyl)-7-aza-indole] | < 20 µM
N[C@@H](Cc1cccnc1)C(=O)Nc1ccc2c(-c3ccncc3)c(-c3ccc(F)cc3)[nH]c2n1 [Compound 111, 6-(3′-(3-pyridyl)-1′-oxo-2′S-aminopropylamino)-3-(4-pyridyl)-2-(4-fluorophenyl)-7-aza-indole] | < 20 µM
CN[C@@H](C)C(=O)Nc1ccc2c(-c3ccncc3)c(-c3ccc(F)cc3)[nH]c2n1 [Compound 127, 6-(1′-oxo-2′S-N-methylaminopropylamino)-3-(4-pyridyl)-2-(4-fluorophenyl)-7-aza-indole] | < 1 µM
N[C@@H](Cc1ccccc1)C(=O)Nc1ccc2c(-c3ccncc3)c(-c3ccc(F)cc3)[nH]c2n1 [Compound 125, 6-(3′-phenyl-1′-oxo-2′-(L)-aminopropylamino)-3-(4-pyridyl)-2-(4-fluorophenyl)-7-aza-indole] | < 20 µM
O=C(Nc1ccc2c(-c3ccncc3)c(-c3ccc(F)cc3)[nH]c2n1)[C@@H]1Cc2ccccc2CN1 [Compound 115, 6-(3(S) 1′,2′,3′,4′-tetrahydro-3′-isoguinolinyloxoamino)-3-(4-pyridyl)-2-(4-fluorophenyl)-7-aza-indole] | < 20 µM
N[C@@H](Cc1csc2ccccc12)C(=O)Nc1ccc2c(-c3ccncc3)c(-c3ccc(F)cc3)[nH]c2n1 [Compound 137, 6-(3′-(3-benzothienyl)-1′-oxo-2′S-aminopropylamino)-3-(4-pyridyl)-2-(4-fluorophenyl)-7-aza-indole] | < 20 µM
C[C@@H](N)C(=O)Nc1ccc2c(-c3ccncc3)c(-c3ccc(F)cc3)[nH]c2n1 [Compound 131, 6-(1′-oxo-2′R-aminopropylamino)-3-(4-pyridyl)-2-(4-fluorophenyl)-7-aza-indole] | < 1 µM
CC(C)(C)CNc1ccc2c(-c3ccncc3)c(-c3ccc(F)cc3)[nH]c2n1 [Compound 151, 6-(2′,2′-dimethylpropylamino)-3-(4-pyridyl)-2-(4-fluorophenyl)-7-aza-indole] | < 20 µM
N[C@@H](C(=O)Nc1ccc2c(-c3ccncc3)c(-c3ccc(F)cc3)[nH]c2n1)c1ccccc1 [Compound 117, 6-(2′-phenyl-1′-oxo-2′R-aminoethylamino)-3-(4-pyridyl)-2-(4-fluorophenyl)-7-aza-indole] | < 1 µM
Nc1ccc2c(-c3ccc(F)cc3)c(-c3ccncc3)[nH]c2n1 [Compound 18, 6-Amino-3-(4-fluorophenyl)-2-(4-pyridyl)-7-aza-indole] | < 20 µM
Nc1ccc2c(-c3ccncc3)c(-c3ccc(F)cc3)[nH]c2n1 [Compound 17, 6-Amino-3-(4-pyridyl)-2-(4-fluorophenyl)-7-aza-indole] | < 1 µM
O=C(Nc1ccc2c(-c3ccncc3)c(-c3ccc(F)cc3)[nH]c2n1)[C@@H]1CCCN1 [Compound 101, 6-(2′-L-prolylamino)-3-(4-pyridyl)-2-(4-fluorophenyl)-7-aza-indole] | < 20 µM
Fc1ccc(-c2[nH]c3nccnc3c2-c2ccncc2)cc1 [Compound 99, 3-(4-pyridyl)-2-(4-fluorophenyl)-4,7-diaza-indole] | < 20 µM
C[S+]([O-])CC[C@H](N)C(=O)Nc1ccc2c(-c3ccncc3)c(-c3ccc(F)cc3)[nH]c2n1 (some centres unmarked) [Compound 109, 6-(4′-methylsulfoxo-1′-oxo-2′S-aminobutylamino)-3-(4-pyridyl)-2-(4-fluorophenyl)-7-aza-indole] | < 20 µM
N[C@H](CCc1ccccc1)C(=O)Nc1ccc2c(-c3ccncc3)c(-c3ccc(F)cc3)[nH]c2n1 [Compound 141, 6-(4′-phenyl-1′-oxo-2′-(D)-aminobutylamino)-3-(4-pyridyl)-2-(4-fluorophenyl)-7-aza-indole] | < 20 µM
NCCCCC(=O)Nc1ccc2c(-c3ccncc3)c(-c3ccc(F)cc3)[nH]c2n1 [Compound 77, 6-(5′-amino-1′-oxo-pentylamino)-3-(4-pyridyl)-2-(4-fluorophenyl)-7-aza-indole] | < 20 µM
Nc1nc2[nH]c(-c3ccc(F)cc3)c(-c3ccncc3)c2cc1Br [Compound 27, 6-Amino-5-bromo-3-(4-pyridyl)-2-(4-fluorophenyl)-7-aza-indole] | < 20 µM
